Measured values as given in PubChem BioAssay (NCI).
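GI50: concentration for 50% inhibition of growth. TGI denotes the concentration required for complete inhibition of growth.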

Tests used:
Experiment in all cases: NCI anticancer screen, dose series, 384-well format
[1] = tested on: IGROV1 ovarian
[2] = tested on: OVCAR-5 ovarian
[3] = tested on: HS 578T breast
[4] = tested on: NCI/ADR-RES ovarian
[5] = tested on: NCI-H23 lung
[6] = tested on: UO-31 renal
[7] = tested on: HT29 colon
[8] = tested on: TK-10 renal
[9] = tested on: HL-60(TB) leukemia
[10] = tested on: BT-549 breast
[11] = tested on: A498 renal
[12] = tested on: SNB-75 CNS
[13] = tested on: CCRF-CEM leukemia

Question: Which results are given for `CC(F)(F)c1cc(F)ccc1-c1sc2cc(O)ccc2c1Oc1ccc(/C=C/C(=O)O)cc1`?
Answer: GI50 [1]: 18.1 µM; TGI [1]: 39.3 µM; GI50 [2]: 18.2 µM; TGI [2]: 33.6 µM; GI50 [3]: 10.2 µM; TGI [3]: 22 µM; GI50 [4]: 16.5 µM; TGI [4]: > 100 µM; GI50 [5]: 16.3 µM; TGI [5]: 30.7 µM; GI50 [6]: 12.4 µM; TGI [6]: 26.3 µM; GI50 [7]: 16.2 µM; TGI [7]: 31.4 µM; GI50 [8]: 22.9 µM; TGI [8]: 61.6 µM; GI50 [9]: 14.6 µM; TGI [9]: 27.8 µM; GI50 [10]: 12.8 µM; TGI [10]: 26.7 µM; GI50 [11]: 13.3 µM; TGI [11]: 29.1 µM; GI50 [12]: 15.5 µM; TGI [12]: 33 µM; GI50 [13]: 12.6 µM; TGI [13]: 25.2 µM
